# Results reported in ChEMBL document CHEMBL4049391, “Vicinal diaryl azole-based urea derivatives as potential cholesterol lowering agents acting through inhibition of SOAT enzymes” (Eur J Med Chem, 2017).
# Target: not listed separately
# Assay: Inhibition of rat microsomal SOAT assessed as reduction in cholesteryl oleate formation from oleoyl co-enzyme A pretreated for 15 mins followed by oleoyl co-enzyme A addition after 10 mins by HPTLC method
Structure (SMILES),IC50 [µM],pIC50
Cc1nc(-c2ccc(Cl)cc2)c(-c2ccc(NC(=O)NCCN3CCOCC3)cc2)s1,118,3.927
COc1ccc(-c2nc(NC(=O)Nc3ccccc3)sc2-c2ccc(Cl)cc2)cc1,10.7,4.972
CCCCNC(=O)Nc1nc(-c2ccc(OC)cc2)c(-c2ccc(Cl)cc2)s1,62.9,4.2014
CCCCCCCNC(=O)Nc1nc(-c2ccc(OC)cc2)c(-c2ccc(Cl)cc2)s1,21.3,4.672
COc1cc(NC(=O)Nc2ccc(-c3sc(C)nc3-c3ccc(F)cc3)cc2)cc(OC)c1OC,12.6,4.898
CCCCCCCCCCCCNC(=O)Nc1ccc(-c2sc(C)nc2-c2ccc(F)cc2)cc1,48.6,4.313
CCCCNC(=O)Nc1nc(-c2ccc(C)cc2)c(-c2ccc(Cl)cc2)s1,94,4.0271
CCCCCCCCCCCCNC(=O)Nc1ccc(-c2sc(C)nc2-c2ccc(C)cc2)cc1,12.2,4.914

# The remaining lines, values ahead:
IC50 [µM],pIC50,Structure (SMILES)
196,3.7081,Cc1nc(-c2ccc(F)cc2)c(-c2ccc(NC(=O)Nc3ccc(F)cc3F)cc2)s1
43.6,4.3606,CCc1cccc(CC)c1NC(=O)Nc1ccc(-c2sc(C)nc2-c2ccc(OC)cc2)cc1
20.1,4.697,Cc1ccc(-c2nonc2-c2ccc(NC(=O)Nc3ccc(F)cc3F)cc2)cc1
9.58,5.0186,CCCCNC(=O)Nc1ccc(-c2sc(C)nc2-c2ccc(F)cc2)cc1
103,3.9863,CCc1cccc(CC)c1NC(=O)Nc1nc(-c2ccc(C)cc2)c(-c2ccc(N)cc2)s1
11.8,4.926,Cc1nc(-c2ccc(F)cc2)c(-c2ccc(NC(=O)Nc3c(C(C)C)cccc3C(C)C)cc2)s1
9.73,5.011,CCc1cccc(CC)c1NC(=O)Nc1ccc(-c2nonc2-c2ccc(F)cc2)cc1
12.3,4.908,CCCCNC(=O)Nc1ccc(-c2nonc2-c2ccc(F)cc2)cc1
31.9,4.496,COc1ccc(-c2nc(NC(=O)Nc3ccc(F)cc3F)sc2-c2ccc(NC(C)=O)cc2)cc1

# Species on record: Rattus norvegicus
# Assay: Inhibition of rat microsomal SOAT assessed as reduction in cholesteryl oleate formation from oleoyl co-enzyme A at 10 uM pretreated for 15 mins followed by oleoyl co-enzyme A addition measured after 10 mins by HPTLC method relative to control
row,Structure (SMILES),inhibition [%]
1,Cc1nc(-c2ccc(Cl)cc2)c(-c2ccc(NC(=O)NCCN3CCOCC3)cc2)s1,12.3
2,CCCCNC(=O)Nc1nc(-c2ccc(Cl)cc2)c(-c2ccc(NS(C)(=O)=O)cc2)s1,5.63
3,CCCCNC(=O)Nc1nc(-c2ccc(OC)cc2)c(-c2ccc(NS(C)(=O)=O)cc2)s1,5.45
4,O=C(Nc1nc(-c2ccccc2)c(-c2ccccc2)s1)Nc1ccc(F)cc1F,3.03
5,COc1ccc(-c2nc(NC(=O)Nc3ccccc3)sc2-c2ccc(Cl)cc2)cc1,56.9
6,COc1ccc(-c2nc(NC(=O)Nc3ccc(F)cc3F)sc2-c2ccc(Cl)cc2)cc1,2.98
7,CCCCNC(=O)Nc1nc(-c2ccc(OC)cc2)c(-c2ccc(Cl)cc2)s1,27.6
8,CCCCNC(=O)Nc1nc(-c2ccc(F)cc2)c(-c2ccc([N+](=O)[O-])cc2)s1,2.98
9,CCCCCCCNC(=O)Nc1nc(-c2ccc(OC)cc2)c(-c2ccc(Cl)cc2)s1,1.73
10,CCCCNC(=O)Nc1nc(-c2ccccc2)c(-c2ccccc2)s1,2.56
11,CCCCNC(=O)Nc1nc(-c2ccc(OC)cc2)c(-c2ccc([N+](=O)[O-])cc2)s1,3.12
12,COc1cc(NC(=O)Nc2ccc(-c3sc(C)nc3-c3ccc(C)cc3)cc2)cc(OC)c1OC,21.9
13,CCCCCCCCCCCCNC(=O)Nc1ccc(-c2sc(C)nc2-c2ccc(OC)cc2)cc1,27.5
14,COc1cc(NC(=O)Nc2ccc(-c3sc(C)nc3-c3ccc(F)cc3)cc2)cc(OC)c1OC,42
15,Cc1ccc(-c2nc(C)sc2-c2ccc(NC(=O)NCCN3CCOCC3)cc2)cc1,19
16,CCCCNC(=O)Nc1ccc(-c2sc(C)nc2-c2ccc(OC)cc2)cc1,40
17,CCCCCCCNC(=O)Nc1ccc(-c2sc(C)nc2-c2ccc(C)cc2)cc1,33.4
18,CCCCNC(=O)Nc1nc(-c2ccc(F)cc2)c(-c2ccc(NS(C)(=O)=O)cc2)s1,0.43
19,CCCCCCCCCCCCNC(=O)Nc1ccc(-c2sc(C)nc2-c2ccc(F)cc2)cc1,34.5
20,CCCCNC(=O)Nc1nc(-c2ccc(OC)cc2)c(-c2ccc(NC(C)C)cc2)s1,4.67
21,O=C(Nc1nc(-c2ccc(Cl)cc2)c(-c2ccc([N+](=O)[O-])cc2)s1)Nc1ccc(F)cc1F,3.28
22,CCCCCCCCCCCCNC(=O)Nc1nc(-c2ccc(F)cc2)c(-c2ccc(Cl)cc2)s1,1.91
23,CCCCCCCCCCCCNc1ccc(-c2sc(NC(=O)Nc3ccc(F)cc3F)nc2-c2ccc(OC)cc2)cc1,1.77
24,CCCCCCCCCCCCNC(=O)Nc1nc(-c2ccccc2)c(-c2ccccc2)s1,1.2

row,Structure (SMILES),inhibition [%]
1,CCCCNC(=O)Nc1nc(-c2ccc(C)cc2)c(-c2ccc(Cl)cc2)s1,36.4
2,CCCCNC(=O)Nc1nc(-c2ccc(Cl)cc2)c(-c2ccc(NC(C)=O)cc2)s1,3.75
3,CCCCCCCCCCCCNC(=O)Nc1ccc(-c2sc(C)nc2-c2ccc(C)cc2)cc1,46.2
4,CCCCNC(=O)Nc1nc(-c2ccc(C)cc2)c(-c2ccc(NS(C)(=O)=O)cc2)s1,32.7
5,COc1ccc(-c2nc(C)sc2-c2ccc(NC(=O)NCCN3CCOCC3)cc2)cc1,21.5
6,CCCCNC(=O)Nc1nc(-c2ccc(F)cc2)c(-c2ccc(Cl)cc2)s1,3.3
7,COc1ccc(-c2nc(C)sc2-c2ccc(NC(=O)Nc3cc(OC)c(OC)c(OC)c3)cc2)cc1,25.4
8,CCCCNC(=O)Nc1nc(-c2ccc(C)cc2)c(-c2ccc([N+](=O)[O-])cc2)s1,3.86
9,CCCCNC(=O)Nc1nc(-c2ccc(C)cc2)c(-c2ccc(NC(C)=O)cc2)s1,5.23
10,Cc1ccc(-c2nc(NC(=O)Nc3ccc(F)cc3F)sc2-c2ccc(Cl)cc2)cc1,3.93
11,CCCCCCCCCCCCNC(=O)Nc1ccc(-c2nonc2-c2ccc(Cl)cc2)cc1,18.5
12,COc1cc(NC(=O)Nc2ccc(-c3sc(C)nc3-c3ccc(Cl)cc3)cc2)cc(OC)c1OC,24.4
13,CCCCNC(=O)Nc1nc(-c2ccc(Cl)cc2)c(-c2ccc([N+](=O)[O-])cc2)s1,3.02
14,Cc1ccc(-c2nc(NC(=O)Nc3ccc(F)cc3F)sc2-c2ccc([N+](=O)[O-])cc2)cc1,3.86
15,CS(=O)(=O)Nc1ccc(-c2sc(NC(=O)Nc3ccc(F)cc3F)nc2-c2ccc(Cl)cc2)cc1,6.39
16,Cc1ccc(-c2nc(NC(=O)Nc3ccccc3)sc2-c2ccc(Cl)cc2)cc1,9.58
17,CCCCCCCCCCCCNc1ccc(-c2sc(NC(=O)NCCCC)nc2-c2ccc(OC)cc2)cc1,3.36
18,CCCCCCCCCCCCNC(=O)Nc1ccc(-c2sc(C)nc2-c2ccc(Cl)cc2)cc1,5.75
19,COc1ccc(-c2nc(NC(=O)Nc3ccc(F)cc3F)sc2-c2ccc([N+](=O)[O-])cc2)cc1,3.4
20,O=C(Nc1nc(-c2ccc(F)cc2)c(-c2ccc([N+](=O)[O-])cc2)s1)Nc1ccc(F)cc1F,3.59
21,CCCCCCCNC(=O)Nc1nc(-c2ccc(OC)cc2)c(-c2ccc([N+](=O)[O-])cc2)s1,1.52
22,Cc1nc(-c2ccc(F)cc2)c(-c2ccc(NC(=O)NCCN3CCOCC3)cc2)s1,29.3
23,CCCCCCCNC(=O)Nc1ccc(-c2sc(C)nc2-c2ccc(OC)cc2)cc1,22.2
24,CCCCCCCCCCCCNC(=O)Nc1nc(-c2ccc(Cl)cc2)c(-c2ccc([N+](=O)[O-])cc2)s1,1.77

# Continued, values first:
row,inhibition [%],Structure (SMILES)
1,4.97,Cc1nc(-c2ccc(F)cc2)c(-c2ccc(NC(=O)Nc3ccc(F)cc3F)cc2)s1
2,11.2,Cc1ccc(-c2nc(C)sc2-c2ccc(NC(=O)Nc3c(C(C)C)cccc3C(C)C)cc2)cc1
3,12.6,Cc1nc(-c2ccc(Cl)cc2)c(-c2ccc(NC(=O)Nc3c(C(C)C)cccc3C(C)C)cc2)s1
4,22.3,COc1ccc(-c2nc(C)sc2-c2ccc(NC(=O)Nc3ccc(F)cc3F)cc2)cc1
5,18.9,CS(=O)(=O)Nc1ccc(-c2sc(NC(=O)Nc3ccc(F)cc3F)nc2-c2ccc(F)cc2)cc1
6,1.52,CCc1cccc(CC)c1NC(=O)Nc1nc(-c2ccc(C)cc2)c(-c2ccc(Cl)cc2)s1
7,2.03,CC(=O)Nc1ccc(-c2sc(NC(=O)Nc3ccc(F)cc3F)nc2-c2ccc(Cl)cc2)cc1
8,47.1,O=C(Nc1ccc(-c2nonc2-c2ccc(F)cc2)cc1)Nc1ccc(F)cc1F
9,31.6,CCc1cccc(CC)c1NC(=O)Nc1ccc(-c2sc(C)nc2-c2ccc(OC)cc2)cc1
10,13.4,Cc1ccc(-c2nc(C)sc2-c2ccc(NC(=O)Nc3ccccc3)cc2)cc1
11,4.3,CCCCCCCNC(=O)Nc1ccc(-c2nonc2-c2ccc(Cl)cc2)cc1
12,13.5,Cc1ccc(-c2nonc2-c2ccc(NC(=O)Nc3ccc(F)cc3F)cc2)cc1
13,1.3,Cc1nc(-c2ccc(Cl)cc2)c(-c2ccc(NC(=O)Nc3ccc(F)cc3F)cc2)s1
14,16.8,Cc1nc(-c2ccc(F)cc2)c(-c2ccc(NC(=O)Nc3ccccc3)cc2)s1
15,2.17,Cc1ccc(-c2nc(NC(=O)Nc3ccc(F)cc3F)sc2-c2ccc(NS(C)(=O)=O)cc2)cc1
16,59.9,CCCCNC(=O)Nc1ccc(-c2sc(C)nc2-c2ccc(F)cc2)cc1
17,2.83,CCCCNC(=O)Nc1ccc(-c2nonc2-c2ccc(C)cc2)cc1
18,42.1,Cc1nc(-c2ccc(F)cc2)c(-c2ccc(NC(=O)Nc3c(C(C)C)cccc3C(C)C)cc2)s1

row,inhibition [%],Structure (SMILES)
1,44.9,CCc1cccc(CC)c1NC(=O)Nc1ccc(-c2nonc2-c2ccc(F)cc2)cc1
2,54.5,CCCCNC(=O)Nc1ccc(-c2nonc2-c2ccc(F)cc2)cc1
3,30.1,COc1ccc(-c2nc(C)sc2-c2ccc(NC(=O)Nc3c(C(C)C)cccc3C(C)C)cc2)cc1
4,39,COc1ccc(-c2nc(NC(=O)Nc3ccc(F)cc3F)sc2-c2ccc(NC(C)=O)cc2)cc1
5,3.06,CC(=O)Nc1ccc(-c2sc(NC(=O)Nc3ccc(F)cc3F)nc2-c2ccc(C)cc2)cc1
6,30.9,CCCCCCCNC(=O)Nc1ccc(-c2nonc2-c2ccc(F)cc2)cc1
7,0.34,CCc1cccc(CC)c1NC(=O)Nc1ccc(-c2nonc2-c2ccc(C)cc2)cc1
8,26.6,Cc1ccc(-c2nc(C)sc2-c2ccc(NC(=O)Nc3ccc(F)cc3F)cc2)cc1
9,1.03,CCc1cccc(CC)c1NC(=O)Nc1nc(-c2ccc(C)cc2)c(-c2ccc([N+](=O)[O-])cc2)s1
10,6.88,Cc1nc(-c2ccc(Cl)cc2)c(-c2ccc(NC(=O)Nc3ccccc3)cc2)s1
11,23,CCCCNC(=O)Nc1ccc(-c2nonc2-c2ccc(Cl)cc2)cc1
12,1.58,CCc1cccc(CC)c1NC(=O)Nc1nc(-c2ccc(F)cc2)c(-c2ccc(Cl)cc2)s1
13,21.2,O=C(Nc1ccc(-c2nonc2-c2ccc(Cl)cc2)cc1)Nc1ccc(F)cc1F
14,18.6,CCCCCCCNC(=O)Nc1ccc(-c2nonc2-c2ccc(C)cc2)cc1
15,23.3,CC(=O)Nc1ccc(-c2sc(NC(=O)Nc3ccc(F)cc3F)nc2-c2ccc(F)cc2)cc1
16,15.4,CCCCNC(=O)Nc1nc(-c2ccc(F)cc2)c(-c2ccc(NC(C)=O)cc2)s1
17,8.25,CCc1cccc(CC)c1NC(=O)Nc1ccc(-c2nonc2-c2ccc(Cl)cc2)cc1
